Experimental data taken from paper PMC10510324, “A Biomimetic C-Terminal Extension Strategy for Photocaging Amidated Neuropeptides” (Journal of the American Chemical Society, 2023).
Starred links: 1 amine or outer side, 2 acyl side, 3 side chain; linkers in the order of their positions; H or OH if unused. Non-standard residues stand in square brackets, D forms with d. Residues, ends and D or L forms follow the SMILES beside them. No end group written: not given here. X1 = COc1cc(C(CC(=O)[*:2])N[*:1])c([N+](=O)[O-])cc1OC; DMNBA = dimethoxynitrobenzyl beta-alanine, racemic

What was measured:
GRPR = target: T1, GRPR (Mus musculus, UniProt P21729); assay: Whole-cell recording of membrane currents, VIP interneurons of motor cortex, acute brain slices; assay type: cell-based
T1 construct: from tissue; host or cells: acute mouse brain slices, VIP interneurons of primary motor cortex (VipCre; Ai14 mice)
T1 sequence (P21729 whole entry): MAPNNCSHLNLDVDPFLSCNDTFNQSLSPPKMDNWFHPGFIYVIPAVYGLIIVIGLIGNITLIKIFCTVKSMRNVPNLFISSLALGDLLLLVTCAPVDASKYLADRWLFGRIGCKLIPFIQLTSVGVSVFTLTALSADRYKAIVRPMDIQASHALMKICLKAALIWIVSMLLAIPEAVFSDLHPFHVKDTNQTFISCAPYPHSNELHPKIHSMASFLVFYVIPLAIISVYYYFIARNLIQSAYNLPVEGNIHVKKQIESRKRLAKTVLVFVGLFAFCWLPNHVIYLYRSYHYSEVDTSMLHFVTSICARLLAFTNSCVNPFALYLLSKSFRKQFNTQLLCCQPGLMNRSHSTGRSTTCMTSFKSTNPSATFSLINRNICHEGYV
Description: (§1) Photoactivatable neuropeptides are powerful tools that can drive studies into the mechanisms of endogenous receptor signaling in acute brain slices.[3],[8],[40] To determine if NPP-caged peptides are compatible with such experiments, we established electrophysiological assays for measuring the activation of GRPR, OTR, NK1R, and CCK2R in acute brain slices taken from transgenic mice. These assays involved whole cell recordings of membrane currents from genetically defined neurons located in different brain regions where endogenous receptor activation produces inward, excitatory currents that facilitate action potential firing. Neuropeptide receptor-expressing cells were identified for fluorescence-guided, targeted electrophysiological recordings using transgenic mice that contain transgenes encoding Cre-recombinase under a promotor that is specific to the cell of interest, as well as a Cre-dependent tdTomato fluorescent protein via the Ai14 (Rosa26-lsl-tdTomato) reporter strain. […]
(§2) (A) Average inward currents over time after bath application of GRP(14-27)-NPP (3 μM, n = 5 cells from 4 mice) or GRP(14-27) (300 nM, n = 5 from 4 mice), recorded from fluorescently labeled VIP interneurons in layer 1 of the motor cortex. Data are expressed as the mean ± SEM. […] Data are expressed as the mean ± SEM. […] Data are expressed as the mean ± SEM. […] Data are expressed as the mean ± SEM. […]

[1] = target: T2, gastrin-releasing peptide receptor (GRPR) (Mus musculus, UniProt P21729); assay: GloSensor cAMP assay of GPCR activation, GRPR; assay type: cell-based; details: for EC50: GloSensor cAMP, n = 10 wells per data point
T2 construct: host or cells: HEK293T
T2 sequence (P21729 whole entry): as above
Description: To determine the effectiveness of the C-TEx caging strategy at attenuating peptide activity, we conducted a live-cell functional assay of GPCR activation in HEK293T cells transfected to express the primary receptors for each neuropeptide. The GloSensor assay reports changes in cyclic adenosine monophosphate (cAMP) signaling as a function of GPCR activation. […] To adapt this cAMP assay to report the activation of Gq-coupled GPCRs, we coexpressed a chimeric Gαs/Gαq protein (sq5) that allows Gq-coupled GPCRs to strongly engage the Gs pathway to elevate cAMP via activation of adenylyl cyclase.[39]
Figure 3 In vitro characterization of NPP-caged neuropeptides using a functional assay of G protein signaling. (A) Dose–response curves at the gastrin-releasing peptide receptor (GRPR) using a GloSensor assay of cAMP signaling in HEK293T cells (n = 10 wells per data point). Data were normalized to the maximal response to GRP(14-27) (300 nM) and are expressed as the mean ± SEM.
Reagent type (species) Designation Source or Identifiers
GRPR plasmid mGRPR Genscript Clone ID OMu14220D
OTR plasmid hOXR cdna.org Cat # OXTR000000
CCK1R hCCK1R cdna.org Cat # CCKAR00000
CCK2R plasmid hCCK2R cdna.org Cat # CCKBR00000
NK1R plasmid hNK1R cdna.org Cat # TACR100000
HEK293T cells ATCC.org Cat # CRL-3216
GloSensor plasmid pGloSensor - Promega Cat # E2301
GloSensor reagent cAMP Reagent Promega Product # E1291
VIP-IRES-CRE, C57Bl/6J The Jackson background (M. musculus, VipCre Laboratory Cat # 010908
Ai14, C57Bl/6J Rosa26-lsl- The Jackson background (M. musculus, tdTomato (Ai14) Laboratory Cat # 007914 […]
C57Bl/6J background (M. ChatCre The Jackson Cat # 006410 musculus, male and Laboratory
Pvalb-IRES-Cre, C57Bl/6J The Jackson background (M. musculus, PvalbCre Cat # 017320 male and female) Laboratory […]
parent peptide. […] The solutions were illuminated in 15 sec periods, after which samples were removed and analyzed by LC-MS using a linear gradient (water/MeCN 5%/95% → MeCN 100%, 0-8 min with 0.1% formic acid) and a C-18 column (4.6 × 50 mm, 1.8 μm) (Agilent). Each compound was assessed in triplicate. […]

OTR = target: T3, OTR (Mus musculus, UniProt P97926); assay: Whole-cell recording of membrane currents, PV interneurons of hippocampal CA1 and CA2, acute brain slices; assay type: cell-based
T3 construct: from tissue; host or cells: acute mouse brain slices, PV interneurons of hippocampal CA1 and CA2 (PvalbCre; Ai14 mice)
T3 sequence (P97926 1-388): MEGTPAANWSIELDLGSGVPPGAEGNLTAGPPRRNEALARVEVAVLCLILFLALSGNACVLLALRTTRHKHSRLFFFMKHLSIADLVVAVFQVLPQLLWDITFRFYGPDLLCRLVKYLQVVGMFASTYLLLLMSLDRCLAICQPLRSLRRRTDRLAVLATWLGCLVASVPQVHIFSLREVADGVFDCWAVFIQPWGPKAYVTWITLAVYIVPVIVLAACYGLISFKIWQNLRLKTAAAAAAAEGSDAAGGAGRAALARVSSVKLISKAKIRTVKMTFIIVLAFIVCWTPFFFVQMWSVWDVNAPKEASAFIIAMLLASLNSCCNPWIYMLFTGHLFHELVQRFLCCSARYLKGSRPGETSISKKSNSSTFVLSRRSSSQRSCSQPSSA
Description: as §1, §2

NK1R = target: T4, NK1R (Mus musculus, UniProt P30548); assay: Whole-cell recording of membrane currents, striatal cholinergic interneurons, acute brain slices; assay type: cell-based
T4 construct: from tissue; host or cells: acute mouse brain slices, cholinergic interneurons of dorsal striatum (ChatCre; Ai14 mice)
T4 sequence (P30548 whole entry): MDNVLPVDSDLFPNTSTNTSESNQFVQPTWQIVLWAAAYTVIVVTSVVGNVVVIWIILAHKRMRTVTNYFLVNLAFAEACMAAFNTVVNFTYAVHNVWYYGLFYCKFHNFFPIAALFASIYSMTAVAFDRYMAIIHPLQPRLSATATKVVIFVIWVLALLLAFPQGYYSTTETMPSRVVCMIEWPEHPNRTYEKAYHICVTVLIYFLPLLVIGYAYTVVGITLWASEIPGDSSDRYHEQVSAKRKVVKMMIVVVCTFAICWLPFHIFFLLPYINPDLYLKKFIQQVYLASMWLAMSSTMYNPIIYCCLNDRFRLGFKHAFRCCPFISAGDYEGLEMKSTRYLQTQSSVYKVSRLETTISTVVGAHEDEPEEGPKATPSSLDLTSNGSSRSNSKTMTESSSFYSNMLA
Description: Photoactivatable neuropeptides are powerful tools that can drive studies into the mechanisms of endogenous receptor signaling in acute brain slices.[3],[8],[40] To determine if NPP-caged peptides are compatible with such experiments, we established electrophysiological assays for measuring the activation of GRPR, OTR, NK1R, and CCK2R in acute brain slices taken from transgenic mice. These assays involved whole cell recordings of membrane currents from genetically defined neurons located in different brain regions where endogenous receptor activation produces inward, excitatory currents that facilitate action potential firing. Neuropeptide receptor-expressing cells were identified for fluorescence-guided, targeted electrophysiological recordings using transgenic mice that contain transgenes encoding Cre-recombinase under a promotor that is specific to the cell of interest, as well as a Cre-dependent tdTomato fluorescent protein via the Ai14 (Rosa26-lsl-tdTomato) reporter strain.
Our experimental framework for evaluating NPP-caged peptides in brain slices is as follows. To assess residual activity, we compared the membrane currents evoked by bath application of the parent peptide and NPP-caged peptide. To evaluate photoactivation, we compared the peak current evoked by a single, high-intensity (20–200 ms, 50–80 mW) light flash from either a 355 nm laser or 365 nm LED, to the current evoked by bath application of the parent peptide, the NPP-caged peptide without light, and NPP-peptide photoactivation in the presence of a receptor antagonist.
(A) Average inward currents over time after bath application of GRP(14-27)-NPP (3 μM, n = 5 cells from 4 mice) or GRP(14-27) (300 nM, n = 5 from 4 mice), recorded from fluorescently labeled VIP interneurons in layer 1 of the motor cortex. Data are expressed as the mean ± SEM. (B) Average inward currents evoked by photoactivation of GRP(14-27)-NPP (3 μM) with an […] light flash in the absence (green, n = 10 cells from 4 mice) and presence of the GRPR antagonist BW1023U90 (1 μM) (black, n = 6 cells from 2 mice). […] Data are expressed as the mean ± SEM. […] Data are expressed as the mean ± SEM. […] Data are expressed as the mean ± SEM. […] Data are expressed as the mean ± SEM.
Brain slice preparation. All procedures were performed in accordance with protocols approved by the University of California San Diego Institutional Animal Care and Use Committee (IACUC) following guidelines described in the US National Institutes of Health Guide for Care and Use of Laboratory Animals (UCSD IACUC protocol S16171). Experiments were conducted using mice of both sexes and the data were combined. From Vip Cre; Rosa26-lsl-tdTomato (Ai14), mouse age ranged from P15-30. From Pvalb Cre; Rosa26-lsl-tdTomato (Ai14), mouse age ranged from P20-35. From Chat Cre; Rosa26-lsl-tdTomato (Ai14), mouse age ranged from P40-100. Mice were anesthetized with isoﬂurane and decapitated, and the brain was removed, blocked, and mounted in a VT1000S vibratome (Leica Instruments). For recordings from cortex and striatum, coronal slices (300 μm) were prepared, and for hippocampus, horizontal slices

[2] = target: gastrin-releasing peptide receptor (UniProt P30550)
Sequence of gastrin-releasing peptide receptor (P30550 whole entry): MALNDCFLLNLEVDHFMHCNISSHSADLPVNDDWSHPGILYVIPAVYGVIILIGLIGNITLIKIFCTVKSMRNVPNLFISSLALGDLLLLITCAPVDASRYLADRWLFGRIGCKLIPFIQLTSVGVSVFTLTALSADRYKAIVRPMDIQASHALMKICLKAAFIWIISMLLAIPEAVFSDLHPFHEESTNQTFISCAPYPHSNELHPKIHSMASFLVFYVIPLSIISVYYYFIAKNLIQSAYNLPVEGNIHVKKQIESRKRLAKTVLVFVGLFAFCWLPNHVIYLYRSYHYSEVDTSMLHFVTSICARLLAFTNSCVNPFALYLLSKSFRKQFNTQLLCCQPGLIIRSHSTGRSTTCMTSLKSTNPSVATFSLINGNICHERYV

## 3-Phenylpropanoyl-His-Trp-Ala-Val-D-Ala-His-D-Pro-CH2NH-Phe-NH2 [BW1023U90]
GRPR; antagonist 1 μM
  block of light-evoked GRP(14-27)-NPP current: completely blocked

## CSCC[C@H](NC(=O)[C@H](CC(C)C)NC(=O)[C@H](Cc1c[nH]cn1)NC(=O)CNC(=O)[C@@H](NC(=O)[C@H](C)NC(=O)[C@H](Cc1c[nH]c2ccccc12)NC(=O)[C@H](Cc1c[nH]cn1)NC(=O)[C@H](CC(N)=O)NC(=O)CNC(=O)[C@H](CCCNC(=N)N)NC(=O)[C@@H]1CCCN1C(=O)[C@H](Cc1ccc(O)cc1)NC(=O)[C@@H](N)CCSC)C(C)C)C(N)=O [GRP(14-27), Gastrin-releasing peptide (14-27)]
GRPR; 300 nM, n = 5 cells from 4 mice, held at −55 mV, mean ± SEM
  peak current amplitude, bath application: −62.8 ± 12.8
[1]; HEK293T cells coexpressing chimeric Gαs/Gαq (sq5), normalized to GRP(14-27) 300 nM
  EC50: 0.0006 µM

## COc1cc(C(CC(=O)N[C@@H](CCCNC(=N)N)C(=O)N[C@@H](CCCCN)C(=O)N2CCC[C@H]2C(=O)N[C@@H](CCC(=O)O)C(=O)N[C@@H](CCCCN)C(=O)O)NC(=O)[C@H](CCSC)NC(=O)[C@H](CC(C)C)NC(=O)[C@H](Cc2c[nH]cn2)NC(=O)CNC(=O)[C@@H](NC(=O)[C@H](C)NC(=O)[C@H](Cc2c[nH]c3ccccc23)NC(=O)[C@H](Cc2c[nH]cn2)NC(=O)[C@H](CC(N)=O)NC(=O)CNC(=O)[C@H](CCCNC(=N)N)NC(=O)[C@@H]2CCCN2C(=O)[C@H](Cc2ccc(O)cc2)NC(=O)[C@@H](N)CCSC)C(C)C)c([N+](=O)[O-])cc1OC (stereo partly drawn) [GRP(14-27)-NPP] (H-MYPRGNHWAVGHLM[X1]RKPEK-OH)
[1]; HEK293T cells coexpressing sq5, no light
  EC50: 6.1 µM
[1]; caged versus parent peptide
  reduction of EC50 (potency) at the GRPR by NPP-caging: ~10,000 fold

## CC[C@H](C)[C@@H]1NC(=O)[C@H](Cc2ccc(O)cc2)NC(=O)[C@@H](N)CSSC[C@@H](C(=O)N2CCC[C@H]2C(=O)N[C@@H](CC(C)C)C(=O)NCC(N)=O)NC(=O)[C@H](CC(N)=O)NC(=O)[C@H](CCC(N)=O)NC1=O [OT, Oxytocin]
OTR; 300 nM, n = 7 from 4 mice, held at -70 mV, mean ± SEM
  peak current amplitude, bath application: −35.8 ± 5.7

## COc1ccccc1CC(=N)N1C[C@@H]2C(=O)CCC(c3ccccc3)(c3ccccc3)[C@@H]2C1 [RP67580, (3aR,7aR)-Octahydro-2-[1-imino-2-(2-methoxyphenyl)ethyl]-7,7-diphenyl-4H-isoindol]
NK1R; antagonist 10 μM
  block of light-evoked SP-NPP current: largely blocked

## (d(CH2)5^1,Tyr(Me)^2,Thr^4,Orn^8,des-Gly-NH2^9)-Vasotocin [OTA]
OTR; antagonist 1 μM
  block of light-evoked OT-NPP current: blocked

## SP-NPP: NPP-caged substance P
NK1R; 1 μM, 1:1 mixture of diastereomers, n = 6 cells from 5 mice, mean ± SEM
  peak current amplitude, bath application without light: −5.2 ± 13.6
NK1R; 1 μM, 1 × 20 ms, 84 mW, 365 nm LED, n = 5 cells from 5 mice, mean ± SEM
  peak current amplitude, photoactivation (+ UV): −265.5 ± 19.7
NK1R; 3 μM as printed in the text, 1:1 mixture of diastereomers
  activity on bath application without light: inactive
NK1R; 1 × 20 ms, 84 mW, 365 nm LED
  τon of light-evoked current: 1.1 s
NK1R; 1 × 20 ms, 84 mW, 365 nm LED, biphasic decay
  τoff slow of light-evoked current: 19.5 s

## MYPRGNHWAVGHLM-NH2 [gastrin-releasing peptide (14-27)]
[2]
  EC50 of receptor activation, GloSensor cAMP assay in HEK293T cells co-expressing the chimeric Gαs/Gαq protein sq5: 0.0006 µM

## MYPRGNHWAVGHLM[DMNBA]RKPEK (also: DMNBA racemic, diastereomers not resolved) [GRP(14-27)-NPP]
[2]
  EC50 of receptor activation, GloSensor cAMP assay in HEK293T cells co-expressing the chimeric Gαs/Gαq protein sq5: 6.1 µM
